{"source": "patent US10422788B2", "about": "“Profiling peptides and methods for sensitivity profiling” (Tolero Pharmaceuticals, Inc., priority 2016, dated 2019)", "key": {"THP-1": {"tested_on": "THP-1", "experiment": "SEQ ID NO: 14 assay (Example 5, DiOC6 flow cytometry)", "type": "cell-based", "conditions": "non-permeabilized, DiOC6 MFI vs CCCP and water"}, "MOLM-13": {"tested_on": "MOLM-13", "experiment": "SEQ ID NO: 14 assay (Example 5, DiOC6 flow cytometry)", "type": "cell-based", "conditions": "non-permeabilized, DiOC6 MFI vs CCCP and water"}, "[1]": {"tested_on": "subject samples (AML blast cells)", "experiment": "SEQ ID NO: 14 assay (Example 5) on subject samples", "type": "cell-based, human", "experimental": "(§1) Leukocytes are isolated from primary bone marrow aspirates using ficoll preparation. Leukocytes may be fresh or frozen. If frozen, the sample is thawed prior to testing. Incubate the sample in RPMI with DNase 1 in 37° C. incubator for 60 minutes. Cells are then pelleted, blocked in PBS with 1% BSA for 15 minutes on ice, followed by staining for 30 minutes on ice in the dark. After staining, cells are pelleted and resuspended in DTEB with Ryanodine (30 nM) and Oligomycin. After incubating in a 37° C. incubator for 30 minutes, the sample is separated into fluorescent-activated cell sorting (FACS) tubes and treated with either water (negative control), CCCP (positive control) or SEQ ID NO:14 (subject dependency) and incubated in a 37° incubator for 60 minutes. DiOC6, a cationic mitochondrial dye is then added and incubated for 60 minutes in a 37° C. incubator. The cells are then analyzed via flow cytometry. Blast cells are isolated by gating on the CD45 dim, CD13, CD33 and CD34 high population of each sample. (See FIG. 3). Where indicated, cells may be further gated using CD3 and CD20. Dependency values are calculated using the median fluorescent intensity (MFI) of DiOC6 in each sample according to the following equation: […]"}, "KG-1": {"tested_on": "KG-1", "experiment": "SEQ ID NO: 14 assay (Example 5, DiOC6 flow cytometry)", "type": "cell-based", "conditions": "non-permeabilized, DiOC6 MFI vs CCCP and water"}, "OCI-AML3": {"tested_on": "OCI-AML3", "experiment": "SEQ ID NO: 14 assay (Example 5, DiOC6 flow cytometry)", "type": "cell-based", "conditions": "non-permeabilized, DiOC6 MFI vs CCCP and water"}, "U-937": {"tested_on": "U-937", "experiment": "SEQ ID NO: 14 assay (Example 5, DiOC6 flow cytometry)", "type": "cell-based", "conditions": "non-permeabilized, DiOC6 MFI vs CCCP and water"}, "MV4-11": {"tested_on": "MV4-11", "experiment": "SEQ ID NO: 14 assay (Example 5, DiOC6 flow cytometry)", "type": "cell-based", "conditions": "non-permeabilized, DiOC6 MFI vs CCCP and water", "experimental": "as §1\nNOXA assay results were compared to the results of the assay described in Example 5."}, "MOLM-13 cells": {"tested_on": "MOLM-13 cells", "experiment": "Whole cell assay, JC-1 mitochondrial potential, cells lacking digitonin (FIG. 1B)", "type": "cell-based", "conditions": "100 μM peptide, no digitonin", "experimental": "(§2) Briefly, frozen MOLM-13 and OCI-AML3 cell stocks were rapidly thawed, and cell viability was determined by Trypan Blue exclusion. Cells were washed in PBS and resuspended in DTEB (or MEB) buffer (135 mM Trehalose [or 150 mM Mannitol], 10 mM HEPES, 50 mM KCl, 20 μMI EGTA, 20 μM EDTA, 0.1% BSA, and 5 mM succinate). The profiling peptides and NOXA ([…]; SEQ ID NO:16) were reconstituted in water to make working solutions allowing for final concentrations of: SEQ ID NO:1 (100 μM), SEQ ID NO:14 (100 μM), SEQ ID NO:15 (100 μM), and NOXA (100 μM). […] Profiling peptides, controls, or NOXA (for comparison purposes) were first added to a microplate. Cells (4×10^5) resuspended in DTEB or MEB buffers were then added to a staining solution ([…], 40 μM JC-1, 1 M 2-mercaptoethanol, DTEB or MEB buffer), before being added to the wells of the microplate in the above (for non-digitonin-treated samples, digitonin was not added to the staining solution above). The mixture was then incubated for up to 2 hours at 30° C., in order for cell permeabilization (if needed), delivery of peptides or compounds, and mitochondrial depolarization to occur. Fluorescence signal of each well was assessed using an Envision multilabel plate reader at Ex475/Em530 and Ex530/Em595. […]"}, "[2]": {"tested_on": "MOLM-13 and OCI-AML3 cells", "experiment": "Whole cell assay, JC-1 mitochondrial potential, permeabilized and non-permeabilized cells", "type": "cell-based", "conditions": "100 μM, normalized mitochondrial potential", "experimental": "as §2"}, "HL-60": {"tested_on": "HL-60", "experiment": "SEQ ID NO: 14 assay (Example 5, DiOC6 flow cytometry)", "type": "cell-based", "conditions": "non-permeabilized, DiOC6 MFI vs CCCP and water"}, "[3]": {"conditions": "Sample # 17, subject treated with FLAM, complete response"}, "[4]": {"conditions": "Sample # 18, subject treated with FLAM, complete response"}, "[5]": {"conditions": "Sample # 19, subject treated with FLAM, complete response"}}, "data": [{"sequence": "YGRKKRRQRRRGGGRPEIWMTQGLRRLGDEINAYYAR (profiling peptide sequence) [SEQ ID NO:14]", "values": [{"measurement": "SEQ ID NO: 14 Dependency %", "setting": "THP-1", "result": 11.70, "unit": "%"}, {"measurement": "SEQ ID NO: 14 Dependency %", "setting": "MOLM-13", "result": 20.78, "unit": "%"}, {"measurement": "SEQ ID NO: 14 Dependency %", "setting": "[1]; Sample # 1", "result": 18.0, "unit": "%"}, {"measurement": "SEQ ID NO: 14 Result (Pos/Neg)", "setting": "[1]; Sample # 1", "result": "Neg (Concordance based on cutoff of ≥40% MCL-1 Dependency for both methods.)"}, {"measurement": "SEQ ID NO: 14 Dependency %", "setting": "[1]; Sample # 2", "result": 44.9, "unit": "%"}, {"measurement": "SEQ ID NO: 14 Result (Pos/Neg)", "setting": "[1]; Sample # 2", "result": "Pos (Concordance based on cutoff of ≥40% MCL-1 Dependency for both methods.)"}, {"measurement": "SEQ ID NO: 14 Dependency %", "setting": "[1]; Sample # 3", "result": 53.8, "unit": "%"}, {"measurement": "SEQ ID NO: 14 Result (Pos/Neg)", "setting": "[1]; Sample # 3", "result": "Pos (Concordance based on cutoff of ≥40% MCL-1 Dependency for both methods.)"}, {"measurement": "SEQ ID NO: 14 Dependency %", "setting": "[1]; Sample # 4", "result": 26.7, "unit": "%"}, {"measurement": "SEQ ID NO: 14 Result (Pos/Neg)", "setting": "[1]; Sample # 4", "result": "Neg (Concordance based on cutoff of ≥40% MCL-1 Dependency for both methods.)"}, {"measurement": "SEQ ID NO: 14 Dependency %", "setting": "[1]; Sample # 5", "result": 70.8, "unit": "%"}, {"measurement": "SEQ ID NO: 14 Result (Pos/Neg)", "setting": "[1]; Sample # 5", "result": "Pos (Concordance based on cutoff of ≥40% MCL-1 Dependency for both methods.)"}, {"measurement": "SEQ ID NO: 14 Dependency %", "setting": "[1]; Sample # 6", "result": 44.3, "unit": "%"}, {"measurement": "SEQ ID NO: 14 Result (Pos/Neg)", "setting": "[1]; Sample # 6", "result": "Pos (Concordance based on cutoff of ≥40% MCL-1 Dependency for both methods.)"}, {"measurement": "SEQ ID NO: 14 Dependency %", "setting": "[1]; Sample # 7", "result": 48.1, "unit": "%"}, {"measurement": "SEQ ID NO: 14 Result (Pos/Neg)", "setting": "[1]; Sample # 7", "result": "Pos (Concordance based on cutoff of ≥40% MCL-1 Dependency for both methods.)"}, {"measurement": "SEQ ID NO: 14 Dependency %", "setting": "[1]; Sample # 8", "result": 17.0, "unit": "%"}, {"measurement": "SEQ ID NO: 14 Result (Pos/Neg)", "setting": "[1]; Sample # 8", "result": "Neg (Concordance based on cutoff of ≥40% MCL-1 Dependency for both methods.)"}, {"measurement": "SEQ ID NO: 14 Dependency %", "setting": "[1]; Sample # 9", "result": 71.8, "unit": "%"}, {"measurement": "SEQ ID NO: 14 Result (Pos/Neg)", "setting": "[1]; Sample # 9", "result": "Pos (Concordance based on cutoff of ≥40% MCL-1 Dependency for both methods.)"}, {"measurement": "SEQ ID NO: 14 Dependency %", "setting": "[1]; Sample # 10", "result": 0.0, "unit": "%"}, {"measurement": "SEQ ID NO: 14 Result (Pos/Neg)", "setting": "[1]; Sample # 10", "result": "Neg (Concordance based on cutoff of ≥40% MCL-1 Dependency for both methods.)"}, {"measurement": "SEQ ID NO: 14 Dependency %", "setting": "[1]; Sample # 11", "result": 40.6, "unit": "%"}, {"measurement": "SEQ ID NO: 14 Result (Pos/Neg)", "setting": "[1]; Sample # 11", "result": "Pos (Concordance based on cutoff of ≥40% MCL-1 Dependency for both methods.)"}, {"measurement": "SEQ ID NO: 14 Dependency %", "setting": "[1]; Sample # 12", "result": 38.3, "unit": "%"}, {"measurement": "SEQ ID NO: 14 Result (Pos/Neg)", "setting": "[1]; Sample # 12", "result": "Neg (Concordance based on cutoff of ≥40% MCL-1 Dependency for both methods.)"}, {"measurement": "SEQ ID NO: 14 Dependency %", "setting": "[1]; Sample # 13", "result": 35.2, "unit": "%"}, {"measurement": "SEQ ID NO: 14 Result (Pos/Neg)", "setting": "[1]; Sample # 13", "result": "Neg (Concordance based on cutoff of ≥40% MCL-1 Dependency for both methods.)"}, {"measurement": "SEQ ID NO: 14 Dependency %", "setting": "[1]; Sample # 14", "result": 2.6, "unit": "%"}, {"measurement": "SEQ ID NO: 14 Result (Pos/Neg)", "setting": "[1]; Sample # 14", "result": "Neg (Concordance based on cutoff of ≥40% MCL-1 Dependency for both methods.)"}, {"measurement": "SEQ ID NO: 14 Dependency %", "setting": "[1]; Sample # 15", "result": 0.0, "unit": "%"}, {"measurement": "SEQ ID NO: 14 Result (Pos/Neg)", "setting": "[1]; Sample # 15", "result": "Neg (Concordance based on cutoff of ≥40% MCL-1 Dependency for both methods.)"}, {"measurement": "SEQ ID NO: 14 Dependency %", "setting": "[1]; Sample # 16", "result": 0.1, "unit": "%"}, {"measurement": "SEQ ID NO: 14 Result (Pos/Neg)", "setting": "[1]; Sample # 16", "result": "Neg (Concordance based on cutoff of ≥40% MCL-1 Dependency for both methods.)"}, {"measurement": "SEQ ID NO: 14 Dependency %", "setting": "[1]; [3]", "result": 62.4, "unit": "%"}, {"measurement": "SEQ ID NO: 14 Result (Pos/Neg)", "setting": "[1]; [3]", "result": "Pos (Concordance based on cutoff of ≥40% MCL-1 Dependency for both methods.)"}, {"measurement": "SEQ ID NO: 14 Dependency %", "setting": "[1]; [4]", "result": 55.0, "unit": "%"}, {"measurement": "SEQ ID NO: 14 Result (Pos/Neg)", "setting": "[1]; [4]", "result": "Pos (Concordance based on cutoff of ≥40% MCL-1 Dependency for both methods.)"}, {"measurement": "SEQ ID NO: 14 Dependency %", "setting": "[1]; [5]", "result": 27.8, "unit": "%"}, {"measurement": "SEQ ID NO: 14 Result (Pos/Neg)", "setting": "[1]; [5]", "result": "Neg (Concordance based on cutoff of ≥40% MCL-1 Dependency for both methods.)"}, {"measurement": "SEQ ID NO: 14 Dependency %", "setting": "KG-1", "result": 0.0, "unit": "%"}, {"measurement": "SEQ ID NO: 14 Dependency %", "setting": "OCI-AML3", "result": 19.40, "unit": "%"}, {"measurement": "SEQ ID NO: 14 Dependency %", "setting": "U-937", "result": 10.1, "unit": "%"}, {"measurement": "SEQ ID NO: 14 Dependency %", "setting": "MV4-11", "result": 5.0, "unit": "%"}, {"measurement": "activity compared to the positive control (FCCP)", "setting": "MOLM-13 cells", "result": "exceeded the activity of the positive control"}, {"measurement": "activity in the absence of digitonin compared to Mcl-1 binding domain alone or SEQ ID NO:15", "setting": "[2]", "result": "superior activity"}, {"measurement": "SEQ ID NO: 14 Dependency %", "setting": "HL-60", "result": 24.5, "unit": "%"}]}]}
